{"source": "PubChem BioAssay AID624061", "about": "(Southern Research Specialized Biocontainment Screening …, 2012)", "tested_on": "E. coli K5, bacterial growth", "test": "E. coli K5 growth effect of capsule formation inhibitors, K5 capsule type, follow-up screen (AID 624061)", "details": "stronger effect = lower value"}
{"smiles": "CCOc1ccc(-c2cc(NC(=O)c3c(F)cccc3F)c(C(=O)O)s2)cc1", "values": [{"measurement": "bacterial growth", "setting": "at 100 µM", "result": 109, "unit": "%"}, {"measurement": "bacterial growth", "setting": "growth, at 50 µM", "result": 106, "unit": "%"}]}
